The record followed here is ChEMBL document CHEMBL5726652, “Oxazole orexin receptor antagonists” (2017).

This test has as its target T1, Orexin receptor type 2 (Homo sapiens, UniProt O43614).
T1 sequence (O43614 whole entry): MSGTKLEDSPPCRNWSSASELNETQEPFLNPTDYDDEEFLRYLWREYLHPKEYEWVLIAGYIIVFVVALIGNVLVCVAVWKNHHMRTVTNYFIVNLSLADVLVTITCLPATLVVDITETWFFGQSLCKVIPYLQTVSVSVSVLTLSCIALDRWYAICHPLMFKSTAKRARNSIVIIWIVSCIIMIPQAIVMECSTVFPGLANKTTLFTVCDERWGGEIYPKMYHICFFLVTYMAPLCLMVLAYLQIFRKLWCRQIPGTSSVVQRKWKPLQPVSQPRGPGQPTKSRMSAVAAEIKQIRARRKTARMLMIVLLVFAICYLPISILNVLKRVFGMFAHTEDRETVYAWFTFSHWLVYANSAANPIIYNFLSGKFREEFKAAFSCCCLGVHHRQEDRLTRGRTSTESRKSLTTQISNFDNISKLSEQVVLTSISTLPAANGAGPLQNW
The test is described as follows: FLIPR Ca2+ Flux Assay: For intracellular calcium measurements, Chinese hamster ovary (CHO) cells expressing the rat orexin-1 receptor or the human orexin-2 receptor, are grown in Iscove's modified DMEM containing 2 mM L-glutamine, […], 1% hypoxanthine-thymidine supplement, 100 U/ml penicillin, 100 μg/ml streptomycin and 10% heat-inactivated fetal calf serum (FCS). The cells are seeded at 20,000 cells/well into Becton-Dickinson black 384-well clear bottom sterile plates coated with poly-D-lysine. All reagents were from GIBCO-Invitrogen Corp. The seeded plates are incubated overnight at 37° C. and 5% CO2. Ala-6,12 human orexin-A as the agonist is prepared as a 1 mM stock solution in 1% bovine serum albumin (BSA) and diluted in assay buffer (HBSS containing 20 mM HEPES, 0.1% BSA and 2.5 mM probenecid, pH7.4) for use in the assay at a final concentration of 70 pM. Test compounds are prepared as 10 mM stock solution in DMSO, then diluted in 384-well plates, first in DMSO, then assay buffer. On the day of the assay, cells are washed 3 times with 100 μl assay buffer and then incubated for 60 min (37° C., 5% CO2) in 60 μl assay buffer containing 1 μM Fluo-4AM ester, 0.02% pluronic acid, and 1% BSA. The dye loading solution is then aspirated and cells are washed 3 times with 100 μl assay buffer. 30 μl of that same buffer is left in each well. […]. In kind it is cell-based.

Take `COC(=O)Cc1nc([C@@H]2CC[C@@H](C)N(C(=O)c3ccccc3-n3nccn3)C2)oc1-c1ccccc1`: the IC50 – broadly, the concentration at which inhibition is half-maximal – came to 33 nM. In the case of `Cc1oc([C@@H]2CC[C@@H](C)N(C(=O)c3cscc3-c3ncccn3)C2)nc1C(C)(C)O`, the IC50 was 56 nM.
